From publication PMC7978038 (Molecular pharmaceutics, 2019)
Like-named read-outs stand apart in the source and are kept apart here.

Key:
[1] = mice, cited from earlier work
[2] = system: 100 different transporters, enzymes, and receptors, including several glutamate targets; settings: selectivity; cited from earlier work
[3] = oral 2-PMPA; cited from earlier work
in vivo [4] = settings: male, CD-1, mouse, iv, 10 mg/kg
in vivo [5] = settings: male, beagle, dog, po, 1 mg/kg
[6] = mice, 10 mg/kg 2-PMPA equivalent dose, mean ± SEM, n = 3
[7] = mouse, microsomes
[8] = human, microsomes
[9] = dog, microsomes

Row | SMILES | 2-PMPA plasma AUC0−t ([1]; oral 2-PMPA, ref our previously published manuscript) | oral bioavailability ([1]; oral) | activity at 100 different transporters, enzymes, and receptors [2] | 2-PMPA brain AUC0−t (mice, IV, 10 mg/kg) | 2-PMPA brain Cmax (mice, IV, 10 mg/kg) | oral bioavailability (F) [3] | AUC(0-t) (in vivo [4]) | Cmax (in vivo [4]) | Kp (in vivo [4]) | AUC(0-t) (in vivo [5]) | Cmax (in vivo [5]) | Tmax (in vivo [5]) | 2-PMPA plasma concentration at 30 min post oral administration [6] | metabolites (including 2 and 3) detected in plasma (mouse, in vivo, po) | Intestinal microsomal stability, intact prodrug level at the end of 1 h incubation [7] | Intestinal microsomal stability, intact prodrug level at the end of 1 h incubation [8] | Intestinal microsomal stability, intact prodrug level at the end of 1 h incubation [9] | fold enhancement in 2-PMPA systemic availability versus orally administered 2-PMPA ([1]; oral)
1 | O=C(O)CCC(CP(=O)(O)O)C(=O)O (stereo not shown) [Prodrug 2-PMPA, 2-(Phosphonomethyl)-pentanedioic acid] | 0.65 ± 0.13 µM·h | < 1% | no activity | 1.6 ± 0.2 nmol·h/g | 1.2 ± 0.1 nmol/g | < 1% | 104 ± 19 µM·h | 109 ± 9.5 µM | 0.015 | 1.44 µM·h | 0.4 µM | 2 h | 0.25 ± 0.02 nmol/mL |  |  |  |  | 
2 | Cc1oc(=O)oc1COC(=O)CCC(CP(=O)(OCc1oc(=O)oc1C)OCc1oc(=O)oc1C)C(=O)OCc1oc(=O)oc1C (stereo not shown) [Prodrug 4] |  |  |  |  |  |  |  |  |  |  |  |  |  | No metabolites, including 2 and 3, were detected | did not show any intact prodrug level | did not show any intact prodrug level | did not show any intact prodrug level | 
3 | CC(C)OC(=O)OCOC(=O)C(CCC(=O)O)CP(=O)(OCOC(=O)OC(C)C)OCOC(=O)OC(C)C (stereo not shown) [Prodrug 21b] |  | 11.5% |  |  |  |  |  |  |  |  |  |  |  |  |  |  |  | 20 fold
